Source: US6814959B1, “UV radiation reflecting or absorbing agents, protecting against harmful UV radiation and reinforcing the natural skin barrier” (PharmaSol GmbH, priority 1999, dated 2004)

Assay: UV absorption of diluted aqueous dispersions in UV spectrophotometer
Format: physicochemical
Conditions: pure lipid solution in 96% ethanol or aqueous surfactant solution of the same concentration; 250-450 nm
Source text: The UV-blocking action of the agent was studied by measuring the UV absorption of the lipid particle dispersion in a UV spectrophotometer. The criterion was the reduced permeability of the lipid particle dispersion for UV radiation in the wavelength range up 280 nm (UV C), from 280 nm to 315 nm (=UV B) und from 315 nm to 400 nm (UV A). A further test to quantify the UV-blocking action was the determination of the reduced permeability of particle films using the standard test with Transpore™ tape (B. L. Diffey, P. M. Farr, Sunscreen protection against UVB, UVA and blue light; an in vivo and in vitro comparison, British Journal of Dermatology 124, 1991, 258-263). The particle films were produced by spreading the particle dispersion on Transpore™ tape and then air-drying. The films thus produced were then glued onto one side of a quartz cuvette and the UV permeability was determined by a photometer. The measurements took place against the corresponding references, e.g. O/W emulsion with the same lipid content as well as UV blockers incorporated into the oil phase of an emulsion.
A lipid particle dispersion consisting of 10% (m/m) cetyl palmitate, 1.2% (m/m) polyglycerol methylglucose distearate (Tego Care 450) and water was produced by high pressure homogenization. The mixture of lipid and emulsifier was melted at 75° C. and dispersed in the aqueous solution with an Ultra-Turrax T25 with dispersing tool S25, Janke und Kunkel (8000 rpm for 1 minute). The obtained pre-emulsion was then homogenized with an APV Gaulin LAB 40 homogenizer at 500 bar with 3 cycles at 75° C. Lipid particles resulted with a PCS diameter of 221 nm and a polydispersity index of 0.06. For comparison, an emulsion system was produced in which the 10% cetyl palmitate was replaced by 10% Miglyol 812. The production parameter was dispersion with the Ultra-Turrax (8000 rpm for 1 minute). The UV-blocking action was examined with a Uvikon 940 spectrophotometer, Kontron, in the wavelength range of 250-450 nm. […]

Absorption over the whole measurement range, did not absorb:
CCCCCCCCCCCCCCCCOC(=O)CCCCCCCCCCCCCCC [cetyl palmitate], CCCCCCCCCCCCCCCCCCO [stearyl alcohol], polyglycerol methylglucose distearate [Tego Care 450]
